Measurements published in patent US20250085201A1, “SUBSTITUTED QUADRUPOLAR FLUORESCENT DYES FOR LIVE CELL IMAGING” (Northwestern University, priority 2023, published 2025).
“Also recorded” adds a separate entry of the source.

What was measured:
Solubility (qualitative) = format: physicochemical; conditions: Cl− salt
[1] = Steady-state UV/Vis absorption and fluorescence emission spectra; format: physicochemical; conditions: micromolar concentrations
Experimental: Fluorescent dyes 1-6, 7·2PF6, 8·2PF6, 9·4PF6 and 9·4Cl were dissolved in THF (1-5), MeCN (6, 7·2PF6, 8·2PF6 and 9.4PF6) and H2O (9.4Cl), respectively, to afford 10 μM solutions prior to spectroscopic analysis. For comparison, their normalized (i) UV/Vis absorption (FIG. 2) and (ii) the fluorescence emission (FIG. 3) spectra of quadrupolar dyes are overlayed, displaying a large range of S1 absorbance and emission maxima, which rely highly on their quadrupolarity that is correlated to the electron-deficiency of the ARs.
Fluorescent dyes were dissolved in the appropriate solvents to afford 1 mM solutions prior to spectroscopic analysis. A portion of 30 μL of a 1 mM solution was diluted by adding a selected solvent to a sample with a total volume of 3000 μL, affording a 1×10^−5 M solution. UV/Vis Absorption spectra were recorded in glass cuvettes on a UV-3600 Shimadzu spectrophotometer. Steady-state emission spectra were acquired in quartz cuvettes with optical path-lengths of 10 mm containing the solution being analyzed using a HORIBA Fluoromax4 spectrofluorometer, which was equipped with an integrating sphere for determining the absolute photoluminescence quantum yield.

[2] = test system: MCF-7 breast cancer cells; assay: Cell growth / cytotoxicity experiments (phase contrast imaging, cell number); format: cell-based; conditions: MCF-7 cells
Experimental: Small molecular dyes are known^86 to intercalate with the DNA on account of electrostatic and base-pair interactions. The presence of these interactions inhibits enzyme function, elevating the cytotoxicity in living cells. To test the cytotoxicity of dye 9·4Cl, (FIG. 6) a series of cell uptake and viability experiments using MCF-7 breast cancer cells were performed. […] Moreover, the cells were viable and treatments of up to 10 μM concentration are non-cytotoxic for up to 64 h post-treatment.
MCF-7 Cells were plated in a 96-well culture plate at a density of 0.01×10^6 cells per well in Dulbecco's modified eagle medium (DMEM) media with 10% fetal bovine serum (FBS) and 1% Penicillin-Streptomycin. Cells were cultured for 24 h then treated with the compounds at a range of concentrations from 0.1-50 μM. Upon treatment, cells were placed in a BioTek LionheartFX system, where they were imaged at 4× magnification every 3 h for 72 h under standard culture conditions (37° C., 5% CO2). Phase contrast images were processed and analyzed with BioTek Gen5 analysis software to identify cell number at each time point during the culture period.
MCF-7 Breast cancer cells were grown in standard Dulbecco's modified eagle medium (DMEM), which was supplemented with 10% Fetal Bovine Serum (FBS) and 1% Penicillin-Streptomycin (Corning). Cells were seeded into an 8-well imaging coverglass chamber (manufacturer-CellVis) or multiwell plate using phenol red free DMEM about 24 h prior to treatment. Dye 9·4Cl was resuspended in deionized H2O before being diluted to their final concentrations in the cell culture media. Cells were treated with the dye for 24 h prior to imaging. Uptake assays were carried out at concentrations from 1-50 μM, including a vehicle control (untreated). For the cell growth assays, cells were treated with the dye for 24 h at a range of concentrations from 0.1-50 μM.
For the cell cytotoxicity experiments, MCF-7 cells were plated in a 96-well culture plate at a density of 0.01×10^6 cells per well in DMEM media with 10% FBS and 1% Penicillin-Streptomycin. Cells were cultured for 24 h before being treated with the dye at a range of concentrations from 0.1-50 μM. After treatment, cells were placed in a BioTek LionheartFX system, where they were imaged at 4× magnification every 3 h for 72 h under standard (37° C., 5% CO2) culture conditions. Phase contrast images were processed and analyzed with BioTek Gen5 analysis software to identify cell numbers at each time point during the culture period.

[3] = Absolute fluorescence quantum yield (integrating sphere); format: physicochemical; conditions: 414 nm excitation

## COc1cc2c(OC)cc1-c1cc[n+](cc1)Cc1ccc(cc1)C[n+]1ccc(cc1)-c1cc(OC)c(cc1OC)-c1cc[n+](cc1)Cc1ccc(cc1)C[n+]1ccc-2cc1 [9·4Cl]
Solubility (qualitative)
  solubility in H2O: readily soluble; also recorded: Water soluble
[1]
  emission in the green region: 548 nm
[2]; concentrations of 5 μM and above
  cell growth: decreases gradually
[2]; higher concentrations (range tested up to 50 μM)
  cell death: minimal cell death is observed
[2]; low concentrations (up to 1 μM)
  growth of the cells versus non-treated control cells: comparable with that of non-treated control cells
[2]; treatments of up to 10 μM, up to 64 h post-treatment
  cytotoxicity: non-cytotoxic
[3]
  ΦF in the solid-state (powder): 0.016±0.005
